# Structures can show the parent of a compound that is named as a salt. Where two headings read alike, the source gives them in different places.
# Test: phase I plasma pharmacokinetics (non-compartmental, LC-MS/MS)
# Assay type: in vivo, human
# Settings: for AUC(0-t) / AUC(0-inf) / Cmax / half-life / Tmax / Vd/F: human, plasma, po
# Method: This was a phase I, single-center, open-label, dose-escalation study conducted at First Hospital of Jilin University, China (registration no.: ChiCTR-OPC-15007153 registered at http://www.chictr.org.cn). Larotinib mesylate hard capsules were produced and supplied by Sunshine Lake Pharma Co., Ltd (Guangdong Province, China) in different unit doses of […] under GMP condition. Seven dose levels were designed in the study: 50, 100, 150, 220, 300, 350, and 400 mg with administration stages labeled cycle 0, cycle 1, and subsequent treatment cycles. Patients received an oral single dose of larotinib mesylate after fasting during a 6-days cycle 0 to evaluate the tolerance and pharmacokinetic characteristics. After cycle 0, larotinib mesylate was continuously administered once daily for 28 days in cycle 1, and the tolerance and pharmacokinetic characteristics of multiple doses were evaluated (Figure 2). The patients who […] disease control (complete response [CR], partial response [PR], or stable disease [SD]) at the end of cycle one were permitted to participate in the subsequent 28-days treatment cycles until progressive disease (PD) or intolerance was observed.
# Blood samples (4 ml) for pharmacokinetic analyses were collected in tubes containing K2EDTA anticoagulant. Blood samples were centrifuged at 3,000 rpm for 10 min at 4°C and stored at –80°C until liquid chromatography-mass spectrophotometry (LC-MS/MS) analysis. Urine and fecal samples were collected only when patients were given the150-mg and 220-mg dose levels at sampling time intervals of 0–4, 4–8, 8–12, 12–24, 24–48, 48–72, 72–96 and 96–120 h in cycle 0.
# Linear mixed effects model was used to explore the dose exposure relationships. Dose proportionality was concluded if the 95% confidence interval (CI) of the linear regression slope was completely contained within the decision interval (1 + ln (0.8)/ln (8)∼1 + ln (1.25)/ln (8)). For urine and fecal data, the accumulative excretion rates of larotinib and M5 were calculated.
# Bioanalysis was performed at Frontage Company (Shanghai, China). Validated high-performance LC-MS/MS method was used to quantify the concentrations of larotinib and M5 in plasma, urine and feces samples. Protein precipitation was employed for plasma, urine and feces processing. Plasma larotinib and M5 concentrations were determined using appropriate calibration curves obtained from standards in the range of 0.5–1,000 ng/ml. The interassay precision of the analysis method were 4.2–5.4% for larotinib and 3.9–4.3% for M5. The interassay accuracy of the analysis method were 100.4–103.4% for larotinib and 102.2–102.9% for M5, respectively.
# Statistical analyses were performed using SAS software, version 9.2 (SAS Institute Inc., United States). Descriptive statistics were used to summarize continuous variables as cases, means with standard deviations (SDs), medians, quartiles, maximums and minimums. For categorical variables, frequencies and percentages were used. A linear mixed effects model, relating log-transformed Cmax and AUC parameters to log-transformed dose, was used to investigate dose proportionality.
compound,measurement,setting,value
COc1cc2ncnc(Nc3ccc(F)c(Cl)c3)c2cc1OCCCN1C[C@@H]2OCCO[C@@H]2C1 [larotinib mesylate],linearity of pharmacokinetics,50–400 mg,No clear linear pharmacokinetic characteristic
same,time to steady state,continuous once daily administration,8 days
same,AUC(0-t),"50 mg, multiple oral administration, 50 mg larotinib mesylate, steady state, read-out: AUC0-t,ss, mean (min–max)",3570 ng·h/mL
same,AUC(0-inf),"50 mg, multiple oral administration, 50 mg larotinib mesylate, steady state, read-out: AUC0-∞,ss, mean (min–max)",4920 ng·h/mL
same,Cmax,"50 mg, multiple oral administration, 50 mg larotinib mesylate, steady state, read-out: Cmax,ss, mean (min–max)",67.5 ng/mL
same,half-life,"50 mg, multiple oral administration, 50 mg larotinib mesylate, steady state, read-out: T1/2,ss, mean (min–max) (converted)",61.2 h
same,Tmax,"50 mg, multiple oral administration, 50 mg larotinib mesylate, steady state, read-out: Tmax,ss, median (min–max)",5 h
same,Vd/F,"50 mg, multiple oral administration, 50 mg larotinib mesylate, steady state, read-out: Vz/F,ss, mean (min–max)",921 L
same,AUC(0-t),"50 mg, single oral administration, 50 mg larotinib mesylate, read-out: AUC0-24, mean (min–max)",245 ng·h/mL
same,AUC(0-t),"50 mg, single oral administration, 50 mg larotinib mesylate, read-out: AUC0-t, mean (min–max)",635 ng·h/mL
same,AUC(0-inf),"50 mg, single oral administration, 50 mg larotinib mesylate, read-out: AUC0-∞, mean (min–max)",817 ng·h/mL
same,Cmax,"50 mg, single oral administration, 50 mg larotinib mesylate, read-out: Cmax, mean (min–max)",17.4 ng/mL
same,half-life,"50 mg, single oral administration, 50 mg larotinib mesylate, read-out: T1/2, mean (min–max) (converted)",56.7 h
same,Tmax,"50 mg, single oral administration, 50 mg larotinib mesylate, read-out: Tmax, median (min–max)",6 h
same,Vd/F,"50 mg, single oral administration, 50 mg larotinib mesylate, read-out: Vz/F, mean (min–max)",5070 L
same,AUC(0-t),"100 mg, multiple oral administration, 100 mg larotinib mesylate, steady state, read-out: AUC0-t,ss, mean (min–max)",4480 ng·h/mL
same,AUC(0-inf),"100 mg, multiple oral administration, 100 mg larotinib mesylate, steady state, read-out: AUC0-∞,ss, mean (min–max)",5200 ng·h/mL
same,Cmax,"100 mg, multiple oral administration, 100 mg larotinib mesylate, steady state, read-out: Cmax,ss, mean (min–max)",131 ng/mL
same,half-life,"100 mg, multiple oral administration, 100 mg larotinib mesylate, steady state, read-out: T1/2,ss, mean (min–max) (converted)",44.8 h
same,Tmax,"100 mg, multiple oral administration, 100 mg larotinib mesylate, steady state, read-out: Tmax,ss, median (min–max)",5 h
same,Vd/F,"100 mg, multiple oral administration, 100 mg larotinib mesylate, steady state, read-out: Vz/F,ss, mean (min–max)",1400 L
same,AUC(0-t),"100 mg, single oral administration, 100 mg larotinib mesylate, read-out: AUC0-24, mean (min–max)",653 ng·h/mL
same,AUC(0-t),"100 mg, single oral administration, 100 mg larotinib mesylate, read-out: AUC0-t, mean (min–max)",1240 ng·h/mL
same,AUC(0-inf),"100 mg, single oral administration, 100 mg larotinib mesylate, read-out: AUC0-∞, mean (min–max)",1390 ng·h/mL
same,Cmax,"100 mg, single oral administration, 100 mg larotinib mesylate, read-out: Cmax, mean (min–max)",64.1 ng/mL
same,half-life,"100 mg, single oral administration, 100 mg larotinib mesylate, read-out: T1/2, mean (min–max) (converted)",43.9 h
same,Tmax,"100 mg, single oral administration, 100 mg larotinib mesylate, read-out: Tmax, median (min–max)",5 h
same,Vd/F,"100 mg, single oral administration, 100 mg larotinib mesylate, read-out: Vz/F, mean (min–max)",4580 L
same,AUC(0-t),"150 mg, multiple oral administration, 150 mg larotinib mesylate, steady state, read-out: AUC0-t,ss, mean (min–max)",18200 ng·h/mL
same,AUC(0-inf),"150 mg, multiple oral administration, 150 mg larotinib mesylate, steady state, read-out: AUC0-∞,ss, mean (min–max)",24600 ng·h/mL
same,Cmax,"150 mg, multiple oral administration, 150 mg larotinib mesylate, steady state, read-out: Cmax,ss, mean (min–max)",371 ng/mL
same,half-life,"150 mg, multiple oral administration, 150 mg larotinib mesylate, steady state, read-out: T1/2,ss, mean (min–max) (converted)",61.2 h
same,Tmax,"150 mg, multiple oral administration, 150 mg larotinib mesylate, steady state, read-out: Tmax,ss, median (min–max)",5 h
same,Vd/F,"150 mg, multiple oral administration, 150 mg larotinib mesylate, steady state, read-out: Vz/F,ss, mean (min–max)",564 L
same,AUC(0-t),"150 mg, single oral administration, 150 mg larotinib mesylate, read-out: AUC0-24, mean (min–max)",1990 ng·h/mL
same,AUC(0-t),"150 mg, single oral administration, 150 mg larotinib mesylate, read-out: AUC0-t, mean (min–max)",4780 ng·h/mL
same,AUC(0-inf),"150 mg, single oral administration, 150 mg larotinib mesylate, read-out: AUC0-∞, mean (min–max)",5660 ng·h/mL
same,Cmax,"150 mg, single oral administration, 150 mg larotinib mesylate, read-out: Cmax, mean (min–max)",150 ng/mL
same,half-life,"150 mg, single oral administration, 150 mg larotinib mesylate, read-out: T1/2, mean (min–max) (converted)",39.3 h
same,Tmax,"150 mg, single oral administration, 150 mg larotinib mesylate, read-out: Tmax, median (min–max)",5 h
same,Vd/F,"150 mg, single oral administration, 150 mg larotinib mesylate, read-out: Vz/F, mean (min–max)",1650 L
same,AUC(0-t),"220 mg, multiple oral administration, 220 mg larotinib mesylate, steady state, read-out: AUC0-t,ss, mean (min–max)",30200 ng·h/mL
same,AUC(0-inf),"220 mg, multiple oral administration, 220 mg larotinib mesylate, steady state, read-out: AUC0-∞,ss, mean (min–max)",43600 ng·h/mL
same,Cmax,"220 mg, multiple oral administration, 220 mg larotinib mesylate, steady state, read-out: Cmax,ss, mean (min–max)",553 ng/mL
same,half-life,"220 mg, multiple oral administration, 220 mg larotinib mesylate, steady state, read-out: T1/2,ss, mean (min–max) (converted)",75.7 h
same,Tmax,"220 mg, multiple oral administration, 220 mg larotinib mesylate, steady state, read-out: Tmax,ss, median (min–max)",6 h
same,Vd/F,"220 mg, multiple oral administration, 220 mg larotinib mesylate, steady state, read-out: Vz/F,ss, mean (min–max)",553 L
same,AUC(0-t),"220 mg, single oral administration, 220 mg larotinib mesylate, read-out: AUC0-24, mean (min–max)",3100 ng·h/mL
same,AUC(0-t),"220 mg, single oral administration, 220 mg larotinib mesylate, read-out: AUC0-t, mean (min–max)",6360 ng·h/mL
same,AUC(0-inf),"220 mg, single oral administration, 220 mg larotinib mesylate, read-out: AUC0-∞, mean (min–max)",8090 ng·h/mL
same,Cmax,"220 mg, single oral administration, 220 mg larotinib mesylate, read-out: Cmax, mean (min–max)",278 ng/mL
same,half-life,"220 mg, single oral administration, 220 mg larotinib mesylate, read-out: T1/2, mean (min–max) (converted)",68.2 h
same,Tmax,"220 mg, single oral administration, 220 mg larotinib mesylate, read-out: Tmax, median (min–max)",5 h
same,Vd/F,"220 mg, single oral administration, 220 mg larotinib mesylate, read-out: Vz/F, mean (min–max)",2720 L
same,AUC(0-t),"300 mg, multiple oral administration, 300 mg larotinib mesylate, steady state, read-out: AUC0-t,ss, mean (min–max)",17900 ng·h/mL
same,AUC(0-inf),"300 mg, multiple oral administration, 300 mg larotinib mesylate, steady state, read-out: AUC0-∞,ss, mean (min–max)",22600 ng·h/mL
same,Cmax,"300 mg, multiple oral administration, 300 mg larotinib mesylate, steady state, read-out: Cmax,ss, mean (min–max)",438 ng/mL
same,half-life,"300 mg, multiple oral administration, 300 mg larotinib mesylate, steady state, read-out: T1/2,ss, mean (min–max) (converted)",54.3 h

# Reference: publication PMC7930822, “Phase I Trial to Evaluate the Tolerance, Pharmacokinetics and Efficacy of the Broad-Spectrum ErbB Family Inhibitor Larotinib Mesylate in Patients With Advanced Solid Tumors” (Frontiers in Pharmacology, 2021)
